Holding throughout (format): in vivo
For assay [1], the system named is DIO mice. Description: Body weight in diet-induced obesity (DIO) mice. The settings on record: for reduction in body weight (BW %): FIG. 8, after 10 days of treatment; for body weight percentage (BW %) reduction: FIG. 4, 40 nmol/kg or equimolar, DIO mice treated for 8 days; for reduction in body weight %: FIG. 14, DIO mice treated for 5 days, N=7. As to the method:
(§1) C57BL6J male mice, in the following referred to as diet-induced obesity (DIO) mice, were maintained on a high-fat diet (58% energy from fat) and had, for each study, an average body weight of more than 45 gram prior to study start. Mice were either housed individually or double-housed. The mice were maintained on a 12 h dark-light cycle at 21-23° C. Compounds were administered subcutaneously once daily (between 2 pm-5 pm) and food intake (FI) and body weight (BW) measured at the corresponding time. For body composition, measures of fat and lean mass were performed prior to the study (1-3 days prior to study start) and on the final day of the study using an MRI scanner (EchoMRI). The group of mice injected with a vehicle (saline) served as the control group.

For assay [2], the system named is DIO mice. Kind of assay: Body composition (fat and lean mass, MRI) in DIO mice. As to conditions: for change in fat body mass (Delta change) / change in lean body mass (Delta change): FIG. 7, 40 nmol/kg or equimolar, DIO mice treated for 8 days. As to the method: as §1
In assay [3] the test system is DIO mice. Description: Food intake in diet-induced obesity (DIO) mice. The protocol: as §1
The mark [4] stands for this setting: 100 nmol/kg or equimolar, DIO mice.
Setting [5] is: FIG. 9, 100 nmol/kg or equimolar, DIO mice treated for 10 days.
Where [6] appears, read: FIG. 11, 100 nmol/kg, DIO mice treated for 10 days.
Where [7] appears, read: FIG. 5, equimolar doses, DIO mice treated for 8 days, compared to vehicle and memantine.
[8] abbreviates: FIG. 6, 40 nmol/kg or equimolar, DIO mice treated for 8 days.

Non-standard residues stand in square brackets, D forms with d. Groups on a side chain read outwards from the residue. No end group written: not given here. disulfide linker = not defined here; Pen = CC(C)(S)[C@H](N)C(=O)O

`C[C@]12N[C@H](Cc3ccccc31)c1ccccc12` [MK801, reference compound]: in assay [1] (setting [4]), the “reduction in body weight (BW %)” value is “nearly no percentage change”.

In the case of `CC12CC3CC(C)(C1)CC(N)(C3)C2` [memantine, reference compound], in assay [2], the “change in fat body mass (Delta change)” value is given as “reduction in fat body mass” and the “change in lean body mass (Delta change)” value is reported as “nearly no change”.

Turning to “GIP/GLP-1/MK801 conjugate: co-agonist GIP/GLP-1 Pen40/MK801 conjugate, peptide according to SEQ ID NO:9 (YGEGTFTSDYSIYLDKQAAKEFVNWLLAGGPSSGAPPPS[Pen]([disulfide linker-MK801]); not fully specified (C-terminus); printed as YX1EGT FTSDY SIYLD KQAAX1 EFVNW LLAGG PSSGA PPPSX2; reading uncertain; also: MK801 attached via disulfide linker; listed as Homo sapiens)”, the “overall reduction in body weight compared to the control group” value in assay [1] (FIG. 33, 50 nmol/kg, DIO mice treated for 7 days) is given as “approximately 25%”. For the same compound, the “cumulative food intake (Cumulative FI)” value in assay [3] (FIG. 34, 50 nmol/kg, DIO mice treated for 7 days, control group 15 g) is on record as “approximately 3 g”.

Consider “GLP-1 Cys40/MK801: peptide of SEQ ID NO:1 conjugated with chemical linker derivatized MK801, cysteine linked (HAEGTFTSDVSSYLEEQAAKEFIAWLVKGGPSSGAPPPSC; not fully specified (residue 40, C-terminus); ends and bridges not checked; listed as Homo sapiens)”, for which, in assay [1] (setting [4]), the “reduction in body weight (BW %)” value is recorded as approximately 12%. In addition, in assay [3] (setting [5]), the “cumulative food intake (FI Cumulative)” value is “approximately 13 g/day”. In addition, in assay [3] (FIG. 9, 100 nmol/kg, DIO mice treated for 10 days), the “cumulative food intake less than the vehicle-treated mice” value is given as “approximately 10 g/day”. In assay [3] (FIG. 10, 100 nmol/kg, DIO mice treated for 10 days, compared to vehicle), the “daily food intake (FI daily)” value was “reduction in food intake was observed all 10 days”. For the same compound, in assay [2] (setting [6]), the “change in fat mass (reduction)” value is approximately 5 g; the “change in lean body mass” value is “reduction in both fat and lean body mass”.

In the case of “GLP-1 Cys40/Memantine: conjugate of peptide of SEQ ID NO:1 and memantine appended via disulfide linker, unmodified cysteine (cysteine linked) (HAEGTFTSDVSSYLEEQAAKEFIAWLVKGGPSSGAPPPSC; not fully specified (residue 40, C-terminus); ends and bridges not checked; listed as Homo sapiens)”, the “body weight percentage (BW %) reduction” value in assay [1] is “approximately 7%”. Also, the “cumulative food intake (FI Cumulative)” value in assay [3] (setting [7]) was “lowered cumulative food intake”. The “daily food intake (FI daily)” value in assay [3] (setting [8]) is on record as “lowered daily food intake”. Besides, in assay [2], the “change in fat body mass (Delta change)” value is reported as “approximately 4 g” and the “change in lean body mass (Delta change)” value is reported as “nearly no change”.

As for “GLP-1 Cys40: the peptide of SEQ ID NO:1, C-terminal unmodified cysteine (HAEGTFTSDVSSYLEEQAAKEFIAWLVKGGPSSGAPPPSC; not fully specified (C-terminus); ends and bridges not checked; listed as Homo sapiens)”, in assay [1], the “body weight percentage (BW %) reduction” value was “lowered BW %”. In addition, in assay [1] (setting [4]), the “reduction in body weight (BW %)” value is reported as “approximately 8%”. Also, the body weight reduction entry in assay [1] (FIG. 12, 100 nmol/kg or equimolar, DIO mice, after 5 days of treatment) was “approximately 4%”. The “reduction in body weight %” value in assay [1] (100 nmol/kg or equimolar) is listed as “approximately 6%”. Also, the “cumulative food intake (FI Cumulative)” value in assay [3] (setting [7]) and in assay [3] (setting [5]) was “lowered cumulative food intake” in each case. Besides, the “daily food intake (FI daily)” value is “lowered daily food intake” in assay [3] (setting [8]) and “only a slight reduction in food intake” in assay [3] (FIG. 6, 40 nmol/kg or equimolar, DIO mice treated for 8 days, listed as GLP-1). For the same compound, in assay [2], the “change in fat body mass (Delta change)” value was “reduction in fat body mass”. For the same compound, in assay [2], the “change in lean body mass (Delta change)” value is “nearly no change”.

In the case of “GLP-1 Pen40: peptide of SEQ ID NO:1 with the Pen40 (L-penicillamine) modification (HAEGTFTSDVSSYLEEQAAKEFIAWLVKGGPSSGAPPPSC; not fully specified (residue 40, C-terminus); ends and bridges not checked; listed as Homo sapiens)”, the “reduction in body weight %” value in assay [1] (100 nmol/kg or equimolar) is recorded as “approximately 6%”.
